Molecular target: T1, BCL6 (Homo sapiens, UniProt P41182)
T1 construct: endogenous in cells; host or cells: T47D breast cancer epithelial cells
Test: Immunofluorescence protocol for high content imaging of BCL6 (degradation) in T47D cells, 3 days compound treatment
Format: cell-based
Conditions: T47D cells, 3 days compound treatment; for DC50: read-out: Mean DC50 (nM)* category; for Dmax: read-out: Mean Dmax (%)** category
Outline: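 Cells are seeded to reach ~70-90% confluence at endpoint, then dosed next day with compound at a final top concentration of 0.1 or 1 μM (11 points, 3-fold). After 3 days, BCL6 is detected by immunofluorescence and quantified by high-content imaging.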

Row | Structure (SMILES) | DC50 | Dmax
1 | CNC(=O)COc1cc2cc(Nc3nc(N4CCC(OC5CCC6(CC5)CN(c5ccc7c(c5)C(=O)N(C5CCC(=O)NC5=O)C7)C6)CC4)ncc3Cl)ccc2n(C(C)C)c1=O (stereo not drawn) [Compound 69, 2-{[6-({5-chloro-2-[4-({2-[2-(2,6-dioxopiperidin-3-yl)-3-oxo-2,3-dihydro-1H-isoindol-5-yl]-2-azaspiro[3.5]nonan-7-yl}oxy)piperidin-1-yl]pyrimidin-4-yl}amino)-2-oxo-1-(propan-2-yl)-1,2-dihydroquinolin-3-yl]oxy}-N-methylacetamide] | < 10 nM | 50 to 70%
2 | CNC(=O)COc1cc2cc(Nc3nc(N4CCC(OC5CCC6(CC5)CN(c5cccc7c5C(=O)N(C5CCC(=O)NC5=O)C7)C6)CC4)ncc3Cl)ccc2n(C(C)C)c1=O (stereo not drawn) [Compound 70, 2-{[6-({5-chloro-2-[4-({2-[2-(2,6-dioxopiperidin-3-yl)-3-oxo-2,3-dihydro-1H-isoindol-4-yl]-2-azaspiro[3.5]nonan-7-yl}oxy)piperidin-1-yl]pyrimidin-4-yl}amino)-2-oxo-1-(propan-2-yl)-1,2-dihydroquinolin-3-yl]oxy}-N-methylacetamide] | 10 to 50 nM | 50 to 70%
3 | CNC(=O)COc1cc2cc(Nc3nc(N4CCC(CN5CCC6(CC5)CN(c5ccc7c(c5F)CN(C5CCC(=O)NC5=O)C7=O)C6)CC4)ncc3Cl)ccc2n(C(C)C)c1=O (stereo not drawn) [Compound 71, 2-{[6-({5-chloro-2-[4-({2-[2-(2,6-dioxopiperidin-3-yl)-4-fluoro-1-oxo-2,3-dihydro-1H-isoindol-5-yl]-2,7-diazaspiro[3.5]nonan-7-yl}methyl)piperidin-1-yl]pyrimidin-4-yl}amino)-2-oxo-1-(propan-2-yl)-1,2-dihydroquinolin-3-yl]oxy}-N-methylacetamide] | < 10 nM | 50 to 70%
4 | CNC(=O)COc1cc2cc(Nc3nc(N4CCC(O[C@H]5C[C@H](N6CCC(c7ccc8c(c7OC)CN(C7CCC(=O)NC7=O)C8=O)CC6)C5)CC4)ncc3Cl)ccc2n(C(C)C)c1=O (stereo partly drawn) [Compound 72, 2-[[6-[[5-chloro-2-[4-[3-[4-[2-(2,6-dioxo-3-piperidyl)-4-methoxy-1-oxo-isoindolin-5-yl]-1-piperidyl]cyclobutoxy]-1-piperidyl]pyrimidin-4-yl]amino]-1-isopropyl-2-oxo-3-quinolyl]oxy]-N-methyl-acetamide] | < 10 nM | 50 to 70%
5 | CNC(=O)COc1cc2cc(Nc3nc(N4CCC(F)(CN5CCC6(CC5)CCN(c5cc(F)cc7c5CN(C5CCC(=O)NC5=O)C7=O)CC6)CC4)ncc3Cl)ccc2n(C(C)C)c1=O (stereo not drawn) [Compound 73, 2-{[6-({5-chloro-2-[4-({9-[2-(2,6-dioxopiperidin-3-yl)-6-fluoro-1-oxo-2,3-dihydro-1H-isoindol-4-yl]-3,9-diazaspiro [5.5]undecan-3-yl}methyl)-4-fluoropiperidin-1-yl]pyrimidin-4-yl}amino)-2-oxo-1-(propan-2-yl)-1,2-dihydroquinolin-3-yl]oxy}-N-methylacetamide] | < 10 nM | 50 to 70%
6 | CNC(=O)COc1cc2cc(Nc3nc(N4CCN(C(C)(C)C5CCC6(CCN(c7ccc8c(c7)CN(C7CCC(=O)NC7=O)C8=O)C6)C5)CC4)ncc3Cl)ccc2n(C(C)C)c1=O (stereo not drawn) [Compound 74, 2-{[6-({5-chloro-2-[4-(2-{2-[2-(2,6-dioxopiperidin-3-yl)-1-oxo-2,3-dihydro-1H-isoindol-5-yl]-2-azaspiro[4.4]nonan-7-yl}propan-2-yl)piperazin-1-yl]pyrimidin-4-yl}amino)-2-oxo-1-(propan-2-yl)-1,2-dihydroquinolin-3-yl]oxy}-N-methylacetamide] | < 10 nM | < 50%
7 | CNC(=O)COc1cc2cc(Nc3nc(N4CCN(CC5CCC6(CCN(c7ccc8c(c7)CN(C7CCC(=O)NC7=O)C8=O)C6)C5)CC4)ncc3Cl)ccc2n(C(C)C)c1=O (stereo not drawn) [Compound 75, 2-{[6-({5-chloro-2-[4-({2-[2-(2,6-dioxopiperidin-3-yl)-1-oxo-2,3-dihydro-1H-isoindol-5-yl]-2-azaspiro[4.4]nonan-7-yl}methyl)piperazin-1-yl]pyrimidin-4-yl}amino)-2-oxo-1-(propan-2-yl)-1,2-dihydroquinolin-3-yl]oxy}-N-methylacetamide] | < 10 nM | 50 to 70%
8 | CNC(=O)COc1cc2cc(Nc3nc(N4CCN(C(C)(C)C5CCN(c6cc(F)c7c(c6)CN(C6CCC(=O)NC6=O)C7=O)CC5)CC4)ncc3Cl)ccc2n(C(C)C)c1=O (stereo not drawn) [Compound 76, 2-{[6-({5-chloro-2-[4-(2-{1-[2-(2,6-dioxopiperidin-3-yl)-7-fluoro-1-oxo-2,3-dihydro-1H-isoindol-5-yl]piperidin-4-yl}propan-2-yl)piperazin-1-yl]pyrimidin-4-yl}amino)-2-oxo-1-(propan-2-yl)-1,2-dihydroquinolin-3-yl]oxy}-N-methylacetamide] | < 10 nM | 50 to 70%
9 | CNC(=O)COc1cc2cc(Nc3nc(N4CCN(C(C)(C)C5CCN(c6cc7c(c(OC)c6)C(=O)N(C6CCC(=O)NC6=O)C7)CC5)CC4)ncc3Cl)ccc2n(C(C)C)c1=O (stereo not drawn) [Compound 77, 2-{[6-({5-chloro-2-[4-(2-{1-[2-(2,6-dioxopiperidin-3-yl)-7-methoxy-1-oxo-2,3-dihydro-1H-isoindol-5-yl]piperidin-4-yl}propan-2-yl)piperazin-1-yl]pyrimidin-4-yl}amino)-2-oxo-1-(propan-2-yl)-1,2-dihydroquinolin-3-yl]oxy}-N-methylacetamide] | < 10 nM | 50 to 70%
10 | CNC(=O)COc1cc2cc(Nc3nc(N4CCN(C(C)(C)C5CCN(c6ccc7c(c6OC)CN(C6CCC(=O)NC6=O)C7=O)CC5)CC4)ncc3Cl)ccc2n(C(C)C)c1=O (stereo not drawn) [Compound 78, 2-{[6-({5-chloro-2-[4-(2-{1-[2-(2,6-dioxopiperidin-3-yl)-4-methoxy-1-oxo-2,3-dihydro-1H-isoindol-5-yl]piperidin-4-yl}propan-2-yl)piperazin-1-yl]pyrimidin-4-yl}amino)-2-oxo-1-(propan-2-yl)-1,2-dihydroquinolin-3-yl]oxy}-N-methylacetamide] | < 10 nM | < 50%
11 | CNC(=O)COc1cc2cc(Nc3nc(N4CCC(O[C@H]5C[C@H](N6CCC(c7cc8c(cc7F)C(=O)N(C7CCC(=O)NC7=O)C8)CC6)C5)CC4)ncc3Cl)ccc2n(C(C)C)c1=O (stereo partly drawn) [Compound 79, 2-({6-[(5-chloro-2-{4-[(1r,3r)-3-{4-[2-(2,6-dioxopiperidin-3-yl)-6-fluoro-1-oxo-2,3-dihydro-1H-isoindol-5-yl]piperidin-1-yl}cyclobutoxy]piperidin-1-yl}pyrimidin-4-yl)amino]-2-oxo-1-(propan-2-yl)-1,2-dihydroquinolin-3-yl}oxy)-N-methylacetamide] | < 10 nM | 50 to 70%
12 | CNC(=O)COc1cc2cc(Nc3nc(N4CCC(CN5CCC6(CC5)CN(c5cc(F)c7c(c5)CN(C5CCC(=O)NC5=O)C7=O)C6)CC4)ncc3Cl)ccc2n(C(C)C)c1=O (stereo not drawn) [Compound 80, 2-{[6-({5-chloro-2-[4-({2-[2-(2,6-dioxopiperidin-3-yl)-7-fluoro-1-oxo-2,3-dihydro-1H-isoindol-5-yl]-2,7-diazaspiro[3.5]nonan-7-yl}methyl)piperidin-1-yl]pyrimidin-4-yl}amino)-2-oxo-1-(propan-2-yl)-1,2-dihydroquinolin-3-yl]oxy}-N-methylacetamide] | < 10 nM | 50 to 70%
